Data on one molecule can be found in paper PMC5642494 (Oncotarget, 2017).

Read-outs that look alike come from different tables or passages of the source.

For this experiment, the system named is MDA-MB-361 cells. The experiment can be described thus: PI high content imaging of G1 arrest and cell proliferation, MDA-MB-361. The experiment is classed as cell-based. Particulars: Homo sapiens, at least 2 DT. The method, then: Relative IC50/EC50 values were determined by curve fitting to a four parameter logistic equation: Y = bottom + ((top-bottom)/ (1+exp(HillSlope*(X – LnIC50)), where X is the natural log of dose/concentration, Y is response, decreasing as X increases, top and bottom are plateaus in the same units as Y, lnIC50 is the natural log of potency, in the same log units as X, and HillSlope measures the steepness of the curve. Data were plotted using GraphPad Prism. […]
www.impactjournals.com/oncotarget/ Oncotarget Supplementary Materials
Preclinical characterization of abemaciclib in hormone receptor […]
Enzyme kinetics of CDK6/cyclin D3 complexes Cells were fixed with para-formaldehyde and Rb phosphorylation at Serine 780 was detected using CDK6/cyclin D3 activity was measured by the a primary mouse anti-Rb (PS780) antibody followed phosphorylation of CTRF using [g-33P] […] Plates were read in an kinase buffer containing 68 mM Hepes at pH 7.5, 6.67 mM Acumen Explorer eX3 (TTP Labtech). […] 10µL of CDK6/cyclin corresponding to 500-530 nm and the percentage of D3 enzyme complex (Millipore 14-519, #D13BP009NA) cells with pRb signal relative to the total PI stained (1 nM final concentration in the assay) was added onto subpopulation was calculated by the instrument’s software a mix of substrate and test compound. […]

A word on the IC50: it is the concentration that inhibits the measured activity by half. In the case of `CCN1CCN(Cc2ccc(Nc3ncc(F)c(-c4cc(F)c5nc(C)n(C(C)C)c5c4)n3)nc2)CC1` [abemaciclib, Abemaciclib], the half-maximal inhibitory concentration (IC50) runs as follows: (n = 2, read-out: IC50 2n (G1 arrest)) 0.038 ± 0.002 µM; (n = 2, read-out: IC50 Cell number) 0.045 ± 0.014 µM.
